Data as given in patent US7038021B2, “Anti-dioxins monoclonal antibody suitable for assaying dioxins in environment and hybridoma producing the same” (priority 2004, dated 2006).
≈ marks a conversion by molar mass, not a printed value.

Experiments:
[1] = tested on: monoclonal antibody Dx02-I-0; experiment: Cross-reactivity of monoclonal antibody Dx02-I-0 by indirect competitive assay (ELISA, II-1 immobilized); assay type: binding, mouse; conditions: for IC50: indirect competitive assay, immobilized II-1, 20% DMSO and 0.01% Triton-X100, room temperature 10 to 30 minutes; for Cross-reactivity: obtained from IC50 values, 1,2,3,7,8-PeCDF = 100; for reactivity (cross-reactivity) of the antibody: assuming the reactivity with 1,2,3,7,8-PeCDF is 100%
Protocol: According to the method used for determination of the antibody titer, antigen II-1 or II-2 was immobilized onto wells of a microtiter plate and the wells were washed. A solution (300 μl) of Block Ace 4-fold diluted with deionized water was then added to the wells, and the wells were blocked by allowing it to stand at room temperature for 2 hours. The wells were washed three times with the washing solution (300 μl). The supernatant (25 μl) of the culture containing a primary antibody as well as a solution (25 μl) of various concentrations of a phenoxathiin derivative (I-1 or I-2), which is a compound for screening having a structure similar to that of dioxins and having a reduced toxicity, in 20% DMSO and 0.01% Triton-X100, or a solution (25 μl) of various concentrations of dioxins in 20% DMSO and 0.01% Triton-X100, or a solution (25 μl) containing neither the phenoxathiin derivatives nor the dioxins in 20% DMSO and 0.01% Triton-X100 which serves as a control were then added to the wells and mixed in the wells. The wells were allowed to stand at room temperature for 10 to 30 minutes to effect an antigen-antibody reaction.
The wells were washed three times with the washing solution (300 μl). Then, in order to detect the primary antibody which was bound to II-1 or II-2 immobilized onto the plate, a solution (50 μl) of a horseradish peroxidase-labeled anti-mouse IgG (recognizing γ-chain) prepared by 3000-fold diluting with a solution of Block Ace 10-fold diluted with deionized water was added to the wells as a solution of a secondary antibody, and reacted at room temperature for one our. After the wells were again washed three times with the washing solution (300 μl), a TMB solution was added to the wells, and a coloration reaction was effected at room temperature. After 5 to 15 minutes, the reaction was terminated by adding 1 M phosphoric acid (50 μl), and the absorbance at 450 nm was immediately measured using a microplate reader. The ratio (B/B0) of an absorbance value (B) in the well to which one of phenoxathiin derivatives or dioxins was added, to an absorbance value (control OD; B0) in the well to which only a solution of 20% DMSO and 0.01% Triton-X100 was added but neither the phenoxathiin derivatives nor the dioxins were added, was calculated to evaluate the reactivity of the primary antibody. A hybridoma in the well in which a continuously high production of an antibody having a high binding activity against the antigens was recognized was selected, expanded, and cloned by a limiting dilution method.
Using monoclonal antibody Dx02-I-0, the cross-reactivity with 17 kinds of dioxins each having a toxicity value and 12 kinds of coplanar PCBs was evaluated by an indirect competitive assay. II-1 (50 μl) was added to wells in a microtiter plate, and the wells were allowed to stand at room temperature for one hour and then washed. After the wells were blocked, various concentrations of one of dioxins (25 μl) dissolved in 20% DMSO and 0.01% Triton-X100 or a solution (25 μl) of 20% DMSO and 0.01% Triton-X100 not containing any dioxin which serves as a control as well as a solution (25 μl) of the antibody diluted with 0.01 to 0.1% BSA were added to the wells in the plate, and reacted at room temperature for 10 to 30 minutes.
Then, a coloration reaction was effected using a secondary antibody against the antibody bound to the solid phase, i.e. a peroxidase-labeled anti-mouse IgG antibody (recognizing γ-chain) as well as TMB. After the enzyme reaction was terminated, the absorbance at 450 nm was immediately measured. The B/B0 values were plotted for various dioxins, IC50 values were calculated from the resulting figures, and the cross-reactivity of the antibody was obtained from these values (Table 3).

[2] = tested on: antibody of non-patent reference 2; conditions: assuming the reactivity with 1,2,3,7,8-PeCDF is 100%; cited from earlier work
[3] = WHO-TEF, toxicity of 2,3,7,8-TCDD taken as 1; cited from earlier work
[4] = tested on: monoclonal antibody Dx02-I-0; experiment: Standard curve by indirect competitive assay, inhibition by 2,3,4,7,8-PeCDF; assay type: binding, mouse; conditions: purified antibody Dx02-I-0, immobilized II-1, FIG. 1
Protocol: II-1 was immobilized onto a microtiter plate at room temperature for one hour, and the plate was washed three Limes with the washing solution (300 μl). A solution (300 μl) of Block Ace prepared by 4-fold diluting with deionized water was then added to the wells, and the wells were blocked at room temperature for 2 hours. The wells were washed three times with the washing solution. […]
The wells were then washed, and a secondary antibody, i.e. a solution (50 μl) of a horseradish peroxidase-labeled anti-mouse IgG (recognizing γ-chain) prepared by 3000-fold diluting with a solution of Block Ace 10-fold diluted with deionized water was added to the wells, and reacted at room temperature for one hour. […] After 5 to 15 minutes, the reaction was terminated by adding 1 M phosphoric acid (50 μl), and the absorbance at 450 nm was immediately measured using a microplate reader. The ratio (B/B0) of an absorbance value (B) in the well to which one of dioxins was added, to control OD (B0) was calculated, and the calculated values were plotted against the concentrations of the added dioxin with single logarithm to obtain a typical sigmoid curve (FIG. 1).

SMILES | IC50 [1] | Cross-reactivity [1] | Cross-reactivity [2] | TEF [3] | reactivity (cross-reactivity) of the antibody [1] | detectable concentration in the assay system [4]
Clc1cc2c(oc3cc(Cl)c(Cl)c(Cl)c32)c(Cl)c1Cl [1,2,3,6,7,8-HxCDF] | >0.1 µg/mL | <1 | 36.6% | 0.1 | – | –
Clc1ccc(-c2cc(Cl)c(Cl)c(Cl)c2Cl)cc1 [2,3,4,4′,5-PeCB] | >0.1 µg/mL | <1 | – | 0.0005 | – | –
Clc1cc2c(cc1Cl)Oc1c(Cl)c(Cl)c(Cl)c(Cl)c1O2 [1,2,3,4,7,8-HxCDD] | >0.1 µg/mL | <1 | – | 0.1 | – | –
Clc1cc(Cl)c(-c2cc(Cl)c(Cl)c(Cl)c2)cc1Cl [2,3′,4,4′,5,5′-HxCB] | >0.1 µg/mL | <1 | – | 0.00001 | – | –
Clc1cc(-c2cc(Cl)c(Cl)c(Cl)c2)cc(Cl)c1Cl [3,3′,4,4′,5,5′-HxCB] | 0.0629 µg/mL (≈ 0.174 µM) | 1 | – | 0.01 | – | –
Clc1cc2c(c(Cl)c1Cl)Oc1cc(Cl)c(Cl)c(Cl)c1O2 [1,2,3,6,7,8-HxCDD] | 0.000984 µg/mL (≈ 0.00252 µM) | 93 | – | 0.1 | 93% | –
Clc1cc2oc3c(Cl)c(Cl)c(Cl)c(Cl)c3c2cc1Cl [1,2,3,4,7,8-HxCDF] | >0.1 µg/mL | <1 | 45.9% | 0.1 | – | –
Clc1cc2c(c(Cl)c1Cl)Oc1c(cc(Cl)c(Cl)c1Cl)O2 [1,2,3,7,8,9-HxCDD] | 0.00106 µg/mL (≈ 0.00271 µM) | 86 | 39.8% | 0.1 | 86% | –
Clc1ccc(-c2cc(Cl)c(Cl)c(Cl)c2)c(Cl)c1 [2′,3,4,4′,5-PeCB] | >0.1 µg/mL | <1 | – | 0.0001 | – | –
Clc1ccc(-c2ccc(Cl)c(Cl)c2)cc1Cl [3,3′,4,4′-TeCB] | >0.1 µg/mL | <1 | – | 0.0001 | – | –
Clc1cc2c(oc3c(Cl)c(Cl)c(Cl)cc32)c(Cl)c1Cl [2,3,4,6,7,8-HxCDF] | 0.000989 µg/mL (≈ 0.00264 µM) | 93 | 43.8% | 0.1 | 93% | –
Clc1c(Cl)c(Cl)c2c(oc3c(Cl)c(Cl)c(Cl)c(Cl)c32)c1Cl [OCDF] | >0.1 µg/mL | <1 | – | 0.0001 | – | –
Clc1cc2c(c(Cl)c1Cl)Oc1c(Cl)c(Cl)c(Cl)c(Cl)c1O2 [1,2,3,4,6,7,8-HpCDD] | >0.1 µg/mL | <1 | – | 0.01 | – | –
Clc1cc2oc3cc(Cl)c(Cl)c(Cl)c3c2c(Cl)c1Cl [1,2,3,7,8,9-HxCDF] | 0.0355 µg/mL (≈ 0.0947 µM) | 3 | 42.7% | 0.1 | – | –
Clc1ccc(-c2cc(Cl)c(Cl)cc2Cl)cc1Cl [2,3′,4,4′,5-PeCB] | >0.1 µg/mL | <1 | – | 0.0001 | – | –
Clc1cc2c(oc3c(Cl)c(Cl)c(Cl)c(Cl)c32)c(Cl)c1Cl [1,2,3,4,6,7,8-HpCDF] | >0.1 µg/mL | <1 | – | 0.01 | – | –
Clc1ccc(-c2cc(Cl)c(Cl)c(Cl)c2Cl)cc1Cl [2,3,3′,4,4′,5-HxCB] | >0.1 µg/mL | <1 | – | 0.0005 | – | –
Clc1cc(-c2cc(Cl)c(Cl)c(Cl)c2Cl)cc(Cl)c1Cl [2,3,3′,4,4′,5,5′-HpCB] | >0.1 µg/mL | <1 | – | 0.0001 | – | –
Clc1cc2oc3c(Cl)c(Cl)c(Cl)cc3c2cc1Cl [2,3,4,7,8-PeCDF, 2,3,4,7,8-pentachlorodibenzofuran] | 0.00586 µg/mL (≈ 0.0172 µM) | 16 | – | – | 16% | ≤ 1 ng/mL
Clc1ccc(-c2ccc(Cl)c(Cl)c2Cl)cc1Cl [2,3,3′,4,4′-PeCB] | >0.1 µg/mL | <1 | – | 0.0001 | – | –
Clc1cc2oc3c(Cl)c(Cl)c(Cl)c(Cl)c3c2c(Cl)c1Cl [1,2,3,4,7,8,9-HpCDF] | 0.00267 µg/mL (≈ 0.00652 µM) | 34 | – | 0.01 | 34% | –
Clc1c(Cl)c(Cl)c2c(c1Cl)Oc1c(Cl)c(Cl)c(Cl)c(Cl)c1O2 [OCDD] | >0.1 µg/mL | <1 | – | 0.0001 | – | –
Clc1cc(-c2ccc(Cl)c(Cl)c2Cl)cc(Cl)c1Cl [2,3,3′,4,4′,5′-HxCB] | >0.1 µg/mL | <1 | – | 0.0005 | – | –
Clc1cc2oc3cc(Cl)c(Cl)cc3c2cc1Cl [2,3,7,8-TeCDF] | 0.0123 µg/mL (≈ 0.0402 µM) | 7 | – | 0.1 | – | –
Clc1ccc(-c2cc(Cl)c(Cl)c(Cl)c2)cc1 [3,4,4′,5-TeCB] | >0.1 µg/mL | <1 | – | 0.0001 | – | –
Clc1cc2c(cc1Cl)Oc1c(cc(Cl)c(Cl)c1Cl)O2 [1,2,3,7,8-PeCDD] | 0.0296 µg/mL (≈ 0.083 µM) | 3 | – | 1 | – | –
Clc1cc2c(cc1Cl)Oc1cc(Cl)c(Cl)cc1O2 [2,3,7,8-TeCDD, 2,3,7,8-tetrachlorodibenzo-p-dioxin] | 0.0072 µg/mL (≈ 0.0224 µM) | 13 | – | 1 | 13% | –
Clc1ccc(-c2cc(Cl)c(Cl)c(Cl)c2)cc1Cl [3,3′,4,4′,5-PeCB] | 0.0537 µg/mL (≈ 0.165 µM) | 2 | – | 0.1 | – | –
Clc1cc2oc3cc(Cl)c(Cl)c(Cl)c3c2cc1Cl [1,2,3,7,8-PeCDF] | 0.000915 µg/mL (≈ 0.00269 µM) | 100 | – | 0.05 | – | –
